{"source": "patent US20080255186A1", "about": "“Pyrazolo[3,4-B]Pyridine Compound, and Its Use as a Pde4 Inhibitor” (priority 2005, published 2008)", "origin": "cited, not measured here", "key": {"COPD patients": {"test_system": "COPD patients", "conditions": "cited from earlier work"}, "[1]": {"test_system": "atopic dermatitis patients", "conditions": "0.5% ointment, twice daily topical application; cited from earlier work"}, "[2]": {"test_system": "humans with histories of allergic rhinitis", "conditions": "orally 500 ug once daily for 9 days, compared to placebo; cited from earlier work"}, "[3]": {"test_system": "atopic dermatitis patients", "conditions": "0.15% cream vs vehicle and hydrocortisone 17-butyrate (0.1%) cream; cited from earlier work"}}}
{"smiles": "COc1ccc([C@]2(C#N)CC[C@@H](C(=O)O)CC2)cc1OC1CCCC1", "note": "[cilomilast]", "values": [{"measurement": "Effect on forced expiratory volume (FEV1) in COPD patients", "setting": "COPD patients; cilomilast: 15 mg orally twice daily", "result": "appears to improve forced expiratory volume"}, {"measurement": "Antiinflammatory effects in COPD patients", "setting": "COPD patients; human, in vivo", "result": "appears to have antiinflammatory effects in COPD patients"}]}
{"smiles": "COc1ccc(C2CNC(=O)NC2)cc1O[C@H]1C[C@@H]2CC[C@H]1C2", "note": "[CP80,633]", "values": [{"measurement": "Effect on inflammatory parameters in atopic dermatitis patients", "setting": "[1]", "result": "reductions of inflammatory parameters"}]}
{"smiles": "O=C(Nc1c(Cl)cncc1Cl)c1ccc(OC(F)F)c(OCC2CC2)c1", "note": "[roflumilast]", "values": [{"measurement": "Effect on rhinal airflow", "setting": "[2]", "result": "effective in improving rhinal airflow"}]}
{"smiles": "Nc1nc2c([nH]1)c(=O)n(CC1CC1)c(=O)n2CC1CC1", "note": "[cipamfylline]", "values": [{"measurement": "Efficacy in treatment of atopic dermatitis patients", "setting": "[3]", "result": "significantly more effective than vehicle, but significantly less effective than hydrocortisone 17-butyrate (0.1%) cream"}]}
